The nature of this data set: Solubility noted on isolation of the product. In kind it is physicochemical. Conditions: qualitative, solvent as stated. The procedure: 2-Benzylmercapto-6-(2-hydroxy-3-methoxybenzylamino)purine riboside (1.18 g) was dissolved in liquid ammonia (125 mL) to yield a clear yellow solution. […]. Sodium was added in small portions until the blue colouration persisted for 15 mins A small amount of solid ammonium chloride was added cautiously to remove excess Na. The ammonia was evaporated to a small volume on a hot plate and ether (125 mL) added (to remove bibenzyl formed as a by-product). After most of the remaining ammonia had been evolved the ether extract was extracted with water (2×65 mL). The aqueous extrakt (at pH 12 to 13) was adjusted to 5 with AcOH cooling to below 10 on dry ice. A creamy solid precipitated. The solid was filtered, washed thoroughly with water and dried overnight over calcium chloride to yield a virtually white, very light powder. Yield: 760 mg. 2-Mercapto-6-(2-hydroxy-3-methoxybenzylamino)purine riboside gives a sharp, symmetrical peak on HPLC (300 nm) and moves readily on TLC in MeOH/chloroform mixtures. […] EtOH solution develops strong yellow colour on standing at room temperature for several days.
2-Methylmercapto-6-chloropurine riboside (3.3 g, 10 mmol) was refluxed with 2-hydroxy-3-methoxybenzylamine ([…], 12 5 mmol) in butanol (100 mL) containing triethylamine (3.2 mL) for 2 h. The butanol was removed under vacuum at 50 to 60° C. […]

Drawing on patent US20140066394A1, “Substituted 6-(Benzylamino) Purine Riboside Derivatives, Use Thereof and Compositions Containing These Derivatives” (Biopatterns, S.R.O, priority 2009, published 2014), this text covers solubility for two compounds.

Consider `COc1cccc(CNc2nc(S)nc3c2ncn3[C@@H]2O[C@H](CO)[C@@H](O)[C@H]2O)c1O` [Compound 71, 2-Mercapto-6-(2-hydroxy-3-methoxybenzylamino)purine riboside], for which the solubility result was “soluble in EtOH”.

`COc1cccc(CNc2nc(SC)nc3c2ncn3[C@@H]2O[C@H](CO)[C@@H](O)[C@H]2O)c1O` [Compound 87, 2-Methylmercapto-6-(2-hydroxy-3-methoxybenzylamino)purine riboside]: the solubility entry was “very soluble in methanol and water”.
